For experiment [1], the target named is T1, amyloid-beta plaques (Homo sapiens, UniProt P05067).
T1 construct: amyloid-beta (Aβ) 1-42 (Anaspec, AS-20276, MW=4514.1, 1 mg); purchased Anaspec AS-20276
The experiment in a line: Confocal microscopy of amyloid-beta plaques with thioflavin S (ThS). Conditions: incubation with ANA for 24 hours. The method, then:
(§1) To prepare amyloid-beta plaques, amyloid-beta (Aβ) 1-42 (Anaspec, AS-20276, MW=4514.1, 1 mg) was dissolved in a 1× PBS buffer (pH 7.4, 1 mL) to a final concentration of 222 μM. The solution was incubated (200 rpm) at 37° C. for 3 days, and the formed amyloid-beta plaques (Aβ plaques) were used in the following in vitro experiment without additional purification.
In addition, to evaluate the presence of amyloid-beta plaques (AB plaques) and a change in the disaggregation morphology of amyloid-beta plaques according to incubation with ANA for 24 hours, thioflavin S (ThS), a probe of amyloid-beta plaques, was additionally treated, and the change thereof was confirmed by fluorescence analysis using a confocal microscope. The samples (Aβ plaques, Aβ plaques +ANA) were added to 1 mL of a ThS (0.5%) solution, and each mixture was pipetted onto a slide glass and dried overnight at room temperature. Then, fluorescence images were obtained using a laser scanning confocal microscope (CLSM, LSM800, Zeiss, Oberkochen, Germany). Confocal images were obtained under excitation at 520 nm (laser power: 3.00%) using a detector (GaAsP, detector gain: 680 V, detector wavelength: 548 to 617 nm).

Experiment [2] addresses T2, amyloid-beta plaques (amyloid-beta (Aβ) 1-42) (Homo sapiens, UniProt P05067).
T2 construct: amyloid-beta (Aβ) 1-42 (Anaspec, AS-20276, MW=4514.1, 1 mg); purchased Anaspec AS-20276
The experiment in a line: Thioflavin T (ThT) fluorescence analysis of amyloid-beta plaque disaggregation. Format: biochemical. On the procedure:
To prepare amyloid-beta plaques, amyloid-beta (Aβ) 1-42 (Anaspec, AS-20276, MW=4514.1, 1 mg) was dissolved in a 1× PBS buffer (pH 7.4, 1 mL) to a final concentration of 222 μM. The solution was incubated (200 rpm) at 37° C. for 3 days, and the formed amyloid-beta plaques (Aβ plaques) were used in the following in vitro experiment without additional purification. From the formed library, hit compounds were identified through fluorescence analysis using thioflavin T (ThT), a probe of amyloid-beta plaques. Specifically, each amyloid-beta plaque disaggregation candidate (100 μM) was mixed with amyloid-beta plaques (10 μM) and ThT (10 μM), and incubated at 37° C. for 24 hours, and then a change in fluorescence intensity of ThT at 482 nm was confirmed (excitation wavelength: 413 nm). The absorption and emission spectra of ThT were obtained using UV/vis absorption spectroscopy (Agilent, California, USA) and a spectrofluorophotometer (Shimadzu Corp., Kyoto, Japan). For Compound P (ANA), a hit compound confirmed in Example 1, the amyloid-beta plaque disaggregation efficacy under various concentration conditions and pH conditions was confirmed through ThT assay in the same manner as in Example 1, and an emission intensity plot of ThT (10 μM) at 482 nm was shown in FIG. 2 (excitation wavelength: 413 nm).

Experiment [3] addresses T1, amyloid-beta plaques. The experiment in a line: TEM analysis of amyloid-beta plaque morphology. Conditions: ANA (100 µM), plaques 20 μM. On the procedure:
as §1
For TEM analysis, amyloid-beta plaques (20 μM) or amyloid-beta plaques (20 μM) and a compound (ANA, 100 μM) were treated on copper grids at room temperature. Each grid treated with samples (Aβ plaques or Aβ plaques+ANA) was washed three times with DI H2O and then stained with uranyl acetate (1% w/v DI H2O, 5 μL) for 1 minute. The uranyl acetate was removed, the grids were dried at room temperature for 20 minutes, and then the morphology of amyloid-beta plaques was analyzed by transmission electron microscopic images (TEM, Tecnai, G2 F30ST, FEI Company, OR, USA).

Experiment [4] concerns the target T1, amyloid-beta plaques. The experiment can be described thus: ThT emission with supernatant of BCAP (released ANA). The conditions noted are these: PBS pH 7.4, 25° C., ThT 10 μM. The experiment is classed as biochemical.

T2 sequence (P05067 672-713 limits assumed): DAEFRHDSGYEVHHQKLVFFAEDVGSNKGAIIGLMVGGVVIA
T1 sequence (P05067 672-713 limits assumed): as above

For the molecule `Nc1ccc2cc(S(=O)(=O)O)ccc2c1` [ANA, 6-amino-2-naphthalenesulfonic acid], the “fluorescence intensity of ThS after treatment” value at amyloid-beta plaques [1] was “significantly reduced”. In addition, the “amyloid-beta plaque disaggregation efficacy versus concentration” value in experiment [2] (ANA 10 μM to 100 μM, plaques 10 μM) is “concentration-dependent manner”. Moreover, the “amyloid-beta plaque disaggregation efficacy at low concentration” value in experiment [2] (ANA 10 μM, plaques 10 μM) was “significantly high amyloid-beta plaque disaggregation efficacy”. Further, the “fluorescence intensity change of ThT compared to a control group” value in experiment [2] (candidate 100 μM, amyloid-beta plaques 10 μM, ThT 10 μM, 37° C., 24 hours, 482 nm) is on record as 23%. Moreover, the “amyloid-beta plaque disaggregation efficacy among A-T candidates” value in experiment [2] (candidate 100 μM, library screening) is recorded as “highest amyloid-beta plaque disaggregation efficacy”. For the same molecule, in experiment [2] (pH 3, 5, 7, 7.4, and 9), the “amyloid-beta plaque disaggregation efficacy under various pH conditions” value is reported as “showed amyloid-beta plaque disaggregation efficacy at all pH conditions”. Besides, in experiment [2] (pH 7.4), the “amyloid-beta plaque disaggregation efficacy at pH of the brain” value is recorded as “highest amyloid-beta plaque disaggregation efficacy”. The “morphology of amyloid-beta plaques after treatment (TEM)” value at amyloid-beta plaques [3] is “disaggregated and released into monomers”. Also, the “amyloid-beta plaque disaggregation efficacy of ANA released from BCAP” value on amyloid-beta plaques [4] is on record as “still has the amyloid-beta plaque disaggregation efficacy”.

These data come from patent US20250295612A1, “NOVEL AMYLOID-BETA AGGREGATE DEGRADER AND BRAIN-TARGETING DRUG DELIVERY SYSTEM USING SAME” (UNIVERSITY-INDUSTRY COOPERATION GROUP OF KYUNG HEE …, priority 2022, published 2025).
